T1: E1-STS (Homo sapiens, UniProt P08842)
T1 sequence (P08842 22-583): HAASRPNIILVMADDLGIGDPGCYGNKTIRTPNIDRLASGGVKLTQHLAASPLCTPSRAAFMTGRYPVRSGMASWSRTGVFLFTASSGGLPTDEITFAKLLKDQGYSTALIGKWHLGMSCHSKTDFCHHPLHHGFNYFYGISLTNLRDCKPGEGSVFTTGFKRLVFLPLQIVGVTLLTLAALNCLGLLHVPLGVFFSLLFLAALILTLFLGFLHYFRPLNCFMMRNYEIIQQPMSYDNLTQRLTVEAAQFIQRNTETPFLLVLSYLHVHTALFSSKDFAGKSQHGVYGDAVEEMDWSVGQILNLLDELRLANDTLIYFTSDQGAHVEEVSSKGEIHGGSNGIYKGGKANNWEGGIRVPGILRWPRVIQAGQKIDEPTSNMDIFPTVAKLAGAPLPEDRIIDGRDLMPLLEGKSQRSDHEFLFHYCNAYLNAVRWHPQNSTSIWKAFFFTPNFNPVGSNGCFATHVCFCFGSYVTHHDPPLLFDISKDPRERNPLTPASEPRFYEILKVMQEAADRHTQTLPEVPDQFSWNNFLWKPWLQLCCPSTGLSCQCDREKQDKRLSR


What was measured:
[1] = system: CAL51 cells; assay: Cell Titre 96 Aqueous One Solution cell proliferation assay, CAL51 cells; assay type: cell-based; conditions: 2 days; for cell death compared to treatment with compound alone: in combination with TRAIL (50 or 250 ng/ml)
Procedure: (§1) FIGS. 1A to 1C show effects of 2-MeOEMATE and 2-EtEMATE on TRAIL induced apoptosis in CAL51 and MCF-7 cells. Cell proliferation assays in which CAL51 cells or MCF7 cells were plated at a density of 5,000 in 96 well plates and treated with 0, 0.05, 0.5 or 5 μM MeoEMATE or 2-EtEMATE in the presence of 0, 50 or 250 ng/ml recombinant human TRAIL. Results are the mean of triplicates+/−S.D. and are expressed as a percentage of results for untreated cells.
(§2) Cell proliferation was measured using the Cell Titre 96 Aqueous One Solution Cell proliferation assay (Promega). This is a colorimetric method which determines cell viability and can therefore be used to measure the ability of drugs to cause cell death. The assay is performed by adding the cell proliferation reagent directly to the cells. Metabolically active cells convert the reagent to a coloured formazan product and the absorbance at 490 nm is measured 1–4 hrs after incubation at 37° C.
(§3) For the TRAIL co-operation experiments, CAL-51 of MCF-7 cells were plated at 5,000 cells per well in 96 well plates. CAL-51 cells were treated with 0, 0.05, 0.5 or 5 μM 2-MeOEMATE or 2-EtEMATE in the presence of 0, 50 or 250 ng/ml recombinant human TRAIL. MCF7 cells were treated with 5 μM 2-MeOEMATE or 2-EtEMATE in the presence or absence of 250 ng/ml recombinant human TRAIL. Cell proliferation was measured 2 days (CAL-51) or 1 day (MCF-7) after addition of drugs. Tests were performed in triplicate and data are means of triplicate results+/−S.D. and are expressed as a percentage of results obtained for untreated cells. Experiments on CAL-51 cells were performed 4 times for each compound and once for each compound on MCF-7 cells.

[2] = system: MCF-7 cells; assay: Cell Titre 96 Aqueous One Solution cell proliferation assay, MCF-7 cells; assay type: cell-based; conditions: 24 hrs
Procedure: as §1, §2, §3

[3] = system: DR5 mRNA; assay: RNAse protection assay, DR5 mRNA levels in Cal51 cells; assay type: cell-based, Human; conditions: 0.5 μM, between 24 and 48 hours
Procedure: (§4) RNAse protection assay showing DR5, DR4 and GAPDH mRNA levels at 0, 8, 16, 24 and 48 hours following treatment with 0.5 μM 2-MeOEMATE and 2-EtEMATE in Cal51 cells.
(§5) We investigated if the co-operation observed between TRAIL and 2-MeOEMATE or 2-EtEMATE to induce cell death in CAL51 cells was due to upregulation of DR4 and/or DR5 receptors by 2-MeOEMATE and 2-EtEMATE. We used RNAse protection assays to examine the levels of mRNAs for DR4 and DR5 following treatment of CAL51 cells with 2-MeOEMATE and 2-EtEMATE over 48 hours.
(§6) This experiment was performed once. A radiolabeled RNA multi-probe was synthesised (Pharmingen RiboQuant Human Apoptosis Multiprobe template set hAPO-3c) using [α^32P] UTP and […] RNA polymerase. This multi-probe template set allows simultaneous generation of several probes for detection and measurement of apoptosis related genes. […]
(§7) Total RNA was prepared using Trizol reagent (Gibco-BRL) from CAL-51 cells treated with 2-MeOEMATE or 2-EtEMATE for 0, 8, 16, 24 and 48 hrs. […] The gel was dried and analysed by phosphoimaging on the Personal Molecular Imager Fx (Biorad). Protected fragment bands corresponding to DR5 and GAPDH were quantified and expressed as a ratio of DR5/GAPDH to normalise results.

[4] = system: DR4 mRNA; assay: RNAse protection assay, DR4 mRNA levels in Cal51 cells; assay type: cell-based, Human; conditions: 0.5 μM, over 48 hours
Procedure: as §4, §5, §6, §7

[5] = system: caspase 3; assay: Western blot of caspase 3 activation in Cal51 cells; assay type: cell-based; conditions: Cal51 cells, 48 hours; for activation of caspase 3 compared to compound alone: 5 μM compound in combination with 250 ng/ml TRAIL; for activation of caspase 3 (reduction of unprocessed caspase 3): treatment alone, 5 μM compound or 250 ng/ml TRAIL
Procedure: FIG. 3. Effect of 2-MeOE2bisMATE on caspase 8 and caspase 3 activation and PARP cleavage in Cal51 cells. Western blots showing caspase 8 and caspase 3 unprocessed and active fragments and PARP uncleaved and cleaved products following treatment of Cal51 cells with solvent, 0.05, 0.5 or 5 μM 2-MeOE2bisMATE for 48 hours.
FIG. 5. Effect of 2-MeOE2bisMATE on the timing of caspase 3 and caspase 8 activation and PARP cleavage in Cal51 cells. Western blots showing caspase 3, caspase 8 and PARP unprocessed and cleaved products at 0, 8, 16, 24 and 48 hrs following treatment of Cal51 cells with 5 μM 2-MeOE2bisMATE for 48 hrs or untreated for 48 hrs (48NT).
FIG. 7. Effect of combined treatment of 2-EtEMATE or 2-MeOEMATE and TRAIL on caspase 3 activation in Cal51 cells. Western blots showing caspase 3 activation following treatment of Cal51 cells for 48 hours with solvent, 250 ng/ml TRAIL and 5 μM 2-EtEMATE or 2-MeOEMATE in the presence or absence of 250 ng/ml TRAIL. PCNA levels represent corresponding loading controls. 1, control; 2, THF solvent; 3, TRAIL; 4, 2-EtEMATE; 5,2-EtEMATE+TRAIL; 6, control; 7, THF solvent; 8, TRAIL; 9, 2-MeOEMATE; 10, 2-MeOEMATE+TRAIL
To determine whether caspases might play a role in cell death induced by 2-MeOE2bisMATE and other sulfamoylated oestrogen derivatives, we examined the expression of caspase 3, caspase 8 and PARP by immunoblotting (FIG. 3). […] Therefore, cell death induced by the 2-MeOE2bisMATE in Cal51 cells is associated with caspase activation.
There are two major pathways of apoptosis; cell surface death receptors activate caspases directly via activation of caspase 8 whereas other apoptotic stimuli operate via triggering the release of cytochrome c from mitochondria which subsequently activates caspases. Both pathways ultimately result in activation of caspase 3 and PARP cleavage. Since activation of caspase 8 is an indicator for the direct involvement of death receptors, it is important to determine whether activation of caspase 8 by 2-MeOE2bisMATE precedes or follows caspase 3 activation. We therefore performed time course experiments in Cal51 cells treated with 2-MeOE2bisMATE to order the activation events. Caspase 3 activation was first detected at 16 hours and as expected was followed by PARP cleavage at 24 hours (FIG. 5). Caspase 8 activation was a relatively late event, first detected at 48 hours. Therefore activation of caspase 3 induced by 2-MeOE2bisMATE precedes activation of caspase 8.
To further explore the mechanism for co-operation between sulfamoylated oestrones and TRAIL, we analysed activation of caspase 3 (FIG. 7). […] Therefore, sulfamoylated oestrones and TRAIL cooperate to activate caspase 3.

[6] = system: DR5 protein; assay: Western blot of DR5 protein levels in Cal51 cells; assay type: cell-based; conditions: 48 hours, 0.05, 0.5 and 5 μM
Procedure: FIG. 6. […] Western blot showing DR5 protein levels following treatment of Cal51 cells for 48 hours with 0, 0.05, 0.5 and 5 μM of 2-MeOEMATE or 2-EtEMATE. PCNA levels represent corresponding loading controls.
Protein lysates were prepared from CAL51 cells treated with various compounds and analysed for expression of DR5 by immunoblotting (FIG. 6).

[7] = biological target: T1, E1-STS; conditions: cited from earlier work
[8] = biological target: T1, E1-STS; design: E1-STS activity in intact MCF-7 cells; endogenous in cells; host or cells: MCF-7 cells; conditions: intact MCF-7 cells, 0.1 μM; cited from earlier work
[9] = 5 μM compound in combination with 250 ng/ml TRAIL
[10] = treatment alone, 5 μM compound or 250 ng/ml TRAIL

Row | Molecule | cell death compared to treatment with compound alone [1] | cell death [2, 9] [%] | cell death [2, 10] [%] | DR5 mRNA levels (DR5/GAPDH) compared to untreated control [3] | DR4 mRNA levels [4] | activation of caspase 3 compared to compound alone [5] | activation of caspase 3 (reduction of unprocessed caspase 3) [5] | DR5 protein levels by western blot [6] | inhibition of the E1-STS enzyme [7] | inhibition of E1-STS activity [8] | TRAIL induced cell death ([1]; TRAIL alone (50 or 250 ng/ml))
1 | CCc1cc2c(cc1OS(N)(=O)=O)CCC1C2CCC2(C)C(=O)CCC12 (stereo not drawn) [2-EtEMATE, 2-ethyloestrone-3-O-sulphamate] | enhanced the amount of cell death | 36 | 16 | significantly increased | did not change significantly | further enhanced | induced activation of caspase 3 | did not detect a significant increase | – | – | –
2 | COc1cc2c(cc1OS(N)(=O)=O)CCC1C2CCC2(C)C(=O)CCC12 (stereo not drawn) [2-MeOEMATE, 2-methoxyoestrone-3-O-sulphamate] | enhanced the amount of cell death | 35 | 13 | significantly increased | did not change significantly | further enhanced | induced activation of caspase 3 | did not detect a significant increase | – | – | –
3 | CC12CCC3c4ccc(OS(N)(=O)=O)cc4CCC3C1CCC2=O (stereo not drawn) [EMATE, oestrone-3-sulphamate] | – | – | – | – | – | – | – | – | time- and concentration-dependent manner | more than 99% | –
4 | TRAIL: Tumour necrosis factor (TNF) related apoptosis inducing ligand; recombinant human TRAIL used in the tests (protein, UniProt P50591 1-281, looked up) Tumor necrosis factor ligand …: MAMMEVQGGPSLGQTCVLIVIFTVLLQSLCVAVTYVYFTNELKQMQDKYSKSGIACFLKEDDSYWDPNDEESMNSPCWQVKWQLRQLVRKMILRTSEETISTVQEKQQNISPLVRERGPQRVAAHITGTRGRSNTLSSPNSKNEKALGRKINSWESSRSGHSFLSNLHLRNGELVIHEKGFYYIYSQTYFRFQEEIKENTKNDKQMVQYIYKYTSYPDPILLMKSARNSCWSKDAEYGLYSIYQGGIFELKENDRIFVSVTNEHLIDMDHEASFFGAFLVG | – | – | 12 | – | – | – | no detectable caspase 3 activation | – | – | – | resistant to TRAIL induced cell death

From patent publication US7211246B2, “Compositions comprising oestrone-3-0-sulphamate and trail (TNF-related apoptosis inducing ligand)” (Sterix Limited, priority 2001, dated 2007)
